A value given as a limit tells only on which side of the number the result lay.

The record followed here is BindingDB's records for doi:10.7270/Q2J101KZ (University of Pittsburgh, 2007).

This assay concerns the target T1, M-phase inducer phosphatase 2 (Homo sapiens, UniProt P30305).
T1 sequence (P30305 whole entry): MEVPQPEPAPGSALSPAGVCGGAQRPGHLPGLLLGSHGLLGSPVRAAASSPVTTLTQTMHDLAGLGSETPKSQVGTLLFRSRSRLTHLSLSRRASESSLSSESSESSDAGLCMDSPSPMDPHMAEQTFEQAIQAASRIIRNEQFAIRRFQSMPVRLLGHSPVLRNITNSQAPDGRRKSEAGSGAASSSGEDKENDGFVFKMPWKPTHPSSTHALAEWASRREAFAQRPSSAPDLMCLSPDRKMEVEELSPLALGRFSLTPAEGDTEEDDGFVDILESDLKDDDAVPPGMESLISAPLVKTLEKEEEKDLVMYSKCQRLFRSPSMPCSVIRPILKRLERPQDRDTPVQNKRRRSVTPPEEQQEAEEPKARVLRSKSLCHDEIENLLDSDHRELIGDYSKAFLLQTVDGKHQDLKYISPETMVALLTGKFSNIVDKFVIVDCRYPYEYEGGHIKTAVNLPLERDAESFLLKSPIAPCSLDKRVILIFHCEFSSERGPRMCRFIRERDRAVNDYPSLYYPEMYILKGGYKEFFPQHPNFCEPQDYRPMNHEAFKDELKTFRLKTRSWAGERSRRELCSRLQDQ
Description: inhibition of Cdc25B catalytic domain activity – biochemical, with glutathione, probe assessment, dose response (AID 671).
In the case of `Cc1c(N=c2c(=O)c3ccccc3c2=O)c(=O)n(-c2ccccc2)n1C` [MLS000105950], the IC50 (in general, the concentration at which inhibition is half-maximal) is more than 50 µM.

Regarding `[O-]/[N+](=C\c1ccc(OC(F)F)cc1)c1ccccc1` [1-[4-(difluoromethoxy)phenyl]-N-phenylmethanimine oxide], the IC50 is more than 50 µM.

`O=C(O)C1Nc2c(O)cccc2C2C=CCC12` (stereo unspecified) showed an IC50 of 6.76 µM.

Take `O=C1C=Cc2ccccc2C1=O` [1,2-dihydronaphthalene-1,2-dione]: the IC50 was found to be 25 µM.

Turning to `COc1ccc(Br)cc1C=c1sc2nc(-c3ccco3)nn2c1=O` [5-[(5-bromanyl-2-methoxy-phenyl)methylidene]-2-(furan-2-yl)-[1,3]thiazolo[3,2-b][1,2,4]triazol-6-one], the IC50 was found to be 2.13 µM.

With `O=C(OC1CCCCC1)c1ccc2c(c1)C1C=CCC1C(C(=O)O)N2` (stereo unspecified) [SMR000019385], the midpoint of inhibition, the IC50, lay at 2.79 µM.

The compound `O=C1Cc2ccccc2C(=O)N1CCc1ccccc1` [2-(2-phenylethyl)-4H-isoquinoline-1,3-dione] gave an IC50 of more than 50 µM.

In turn, `CCOc1ccc2noc3c2c1C(=O)c1ccccc1-3` [MLS000106837] gave an IC50 of more than 50 µM.

In turn, `COc1ccc2noc3c2c1C(=O)c1ccccc1-3` [MLS000106874] showed an IC50 of more than 50 µM.

For the compound `Cc1ccc2c(c1C)NC(C(=O)O)C1CC=CC21` (stereo unspecified), the IC50 came to 4.73 µM.

Turning to `[O-]/[N+](=C\c1ccncc1)c1ccccc1`, the IC50 was more than 50 µM.

`CC(=O)Nc1cc(OC(C)=O)c2nonc2c1OC(C)=O` [Acetic acid 7-acetoxy-5-acetylamino-benzo[1,2,5]oxadiazol-4-yl ester] had an IC50 of more than 50 µM.

Consider `O=C(Nc1ccc2nc(-c3ccco3)c(-c3ccco3)nc2c1)N1CCCCCC1`, for which half-maximal inhibition (IC50) was put at 23.7 µM.

The compound `Nc1cccc2cnccc12` [isoquinolin-5-amine] had an IC50 of more than 50 µM.

As for `COc1cccc2c1NC(C(=O)O)C1CC=CC21` (stereo unspecified) [SMR000009698], the IC50 amounted to 8.23 µM.

For the compound `c1ccc(CSc2nnc(-c3ccco3)c(-c3ccco3)n2)cc1` [MLS-0029114.0001], the IC50 worked out at 11.1 µM.

`Cc1ccccc1Nc1cc2ccccc2c(O)n1` [3-[(2-methylphenyl)amino]-2H-isoquinolin-1-one] gave an IC50 of more than 50 µM.

As for `CCOC(=O)C(C(=O)OCC)c1cc(Br)c2noc3c2c1C(=O)c1ccccc1-3` [MLS000038842], the IC50 is more than 50 µM.

Compound `N#Cc1c(N)sc(=S)c2c1CCN(Cc1ccccc1)C2` [3-Amino-7-benzyl-1-thioxo-5,6,7,8-tetrahydro-1H-thiopyrano[3,4-c]pyridine-4-carbonitrile] had an IC50 of 43 µM.

Compound `CCn1nc(-c2cccs2)nc2c(=O)n(C)c(=O)nc1-2` [1-ethyl-6-methyl-3-thiophen-2-yl-pyrimido[5,4-e][1,2,4]triazine-5,7-dione] showed an IC50 of more than 50 µM.

The compound `Oc1nc(Nc2ccccc2)cc2ccccc12` [MLS000043701] displayed an IC50 of more than 50 µM.

As for `CCn1nc(-c2ccccc2)nc2c(=O)n(C)c(=O)nc1-2` [1-Ethyl-6-methyl-3-phenyl-1H-pyrimido[5,4-e][1,2,4]triazine-5,7-dione], the IC50 was more than 50 µM.

`COc1cccc2c(C)c(C(=O)O)[nH]c12`: the IC50 stood at 6.8 µM.

As for `N#Cc1c(N2CCCC2)nc(N)c2c(N)nc(N3CCCC3)cc12` [SMR000061605], the IC50 was more than 50 µM.

In the case of `Cn1ncnc2c(=O)n(C)c(=O)nc1-2`, the IC50 is 35.5 µM.

In the case of `O=C(NC1(O)C(=O)c2ccccc2C1=O)c1ccccc1` [N-(2-hydroxy-1,3-dioxo-2-indenyl)benzamide], the IC50 was more than 50 µM.
